Reference: PubChem BioAssay AID2060899 (Molecular Pharmacology Branch, DTP, NCI, 2025)
Blank lines part the entries; values can stand above or below the molecule they belong to.

Tested on: 565726-208-R1-J5-PDC complex spheroids, growth inhibition
Test: Anticancer human tumor 565726-208-R1-J5-PDC patient-derived pancreatic adenocarcinoma cell line growth inhibition [RAS]
Conditions: for IC50: curve of first compound; for viability, T/C: stronger effect = lower value
Procedure, shortened: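 Agents were tested in combination matrices in half-log decrements from a top concentration at or near clinical Cmax (10 microM if undetermined). Targets were multi-cell spheroids of tumour lines plus HUVEC and MSC stromal cells.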
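Further: spheroids exposed to compounds for seven days before readout.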
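Wherever viability, T/C is given: 100% = DMSO vehicle control viability.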

- IC50 (second compound 0.0316 µM): 4.16 nM
- IC50 (second compound 0.1 µM): 4.06 nM
- IC50 (second compound 0.316 µM): 3.83 nM
- IC50 (second compound 1 µM): 2.73 nM
- IC50 (second compound 3.16 µM): 3.14 nM
- IC50 (second compound 10 µM): 1.5 nM
Compound: CCc1c2c(nc3ccc(O)cc13)-c1cc3c(c(=O)n1C2)COC(=O)[C@]3(O)CC + C#Cc1c(F)ccc2cc(O)cc(-c3ncc4c(N5CC6CCC(C5)N6)nc(OCC56CCCN5CC(F)C6)nc4c3F)c12
- viability, T/C (second compound 0.0316 µM, first compound 0.000949 µM): 74.2%
- viability, T/C (second compound 0.0316 µM, first compound 0.003 µM): 56.9%
- viability, T/C (second compound 0.0316 µM, first compound 0.00949 µM): 34%
- viability, T/C (second compound 0.0316 µM, first compound 0.03 µM): 20.2%
- viability, T/C (second compound 0.0316 µM, first compound 0.0949 µM): 12.5%
- viability, T/C (second compound 0.0316 µM, first compound 0.3 µM): 5.35%
- viability, T/C (second compound 0.1 µM, first compound 0.000949 µM): 97.8%
- viability, T/C (second compound 0.1 µM, first compound 0.003 µM): 56%
- viability, T/C (second compound 0.1 µM, first compound 0.00949 µM): 31.8%
- viability, T/C (second compound 0.1 µM, first compound 0.03 µM): 19.4%
- viability, T/C (second compound 0.1 µM, first compound 0.0949 µM): 13.1%
- viability, T/C (second compound 0.1 µM, first compound 0.3 µM): 6.83%
- viability, T/C (second compound 0.316 µM, first compound 0.000949 µM): 81.1%
- viability, T/C (second compound 0.316 µM, first compound 0.003 µM): 56.2%
- viability, T/C (second compound 0.316 µM, first compound 0.00949 µM): 30.2%
- viability, T/C (second compound 0.316 µM, first compound 0.03 µM): 20.6%
- viability, T/C (second compound 0.316 µM, first compound 0.0949 µM): 13.9%
- viability, T/C (second compound 0.316 µM, first compound 0.3 µM): 6.04%
- viability, T/C (second compound 1 µM, first compound 0.000949 µM): 70.8%
- viability, T/C (second compound 1 µM, first compound 0.003 µM): 43%
- viability, T/C (second compound 1 µM, first compound 0.00949 µM): 35.9%
- viability, T/C (second compound 1 µM, first compound 0.03 µM): 22.4%
- viability, T/C (second compound 1 µM, first compound 0.0949 µM): 11.8%
- viability, T/C (second compound 1 µM, first compound 0.3 µM): 6.08%
- viability, T/C (second compound 3.16 µM, first compound 0.000949 µM): 58.8%
- viability, T/C (second compound 3.16 µM, first compound 0.003 µM): 54.6%
- viability, T/C (second compound 3.16 µM, first compound 0.00949 µM): 29.1%
- viability, T/C (second compound 3.16 µM, first compound 0.03 µM): 22.1%
- viability, T/C (second compound 3.16 µM, first compound 0.0949 µM): 14.1%
- viability, T/C (second compound 3.16 µM, first compound 0.3 µM): 7.99%
- viability, T/C (second compound 10 µM, first compound 0.000949 µM): 52.6%
- viability, T/C (second compound 10 µM, first compound 0.003 µM): 49.1%
- viability, T/C (second compound 10 µM, first compound 0.00949 µM): 30.1%
- viability, T/C (second compound 10 µM, first compound 0.03 µM): 30.9%
- viability, T/C (second compound 10 µM, first compound 0.0949 µM): 20.3%
- viability, T/C (second compound 10 µM, first compound 0.3 µM): 8.91%

- IC50 (second compound 0.00316 µM): > 1000 nM
- IC50 (second compound 0.01 µM): > 1000 nM
- IC50 (second compound 0.0316 µM): > 1000 nM
- IC50 (second compound 0.1 µM): > 1000 nM
- IC50 (second compound 0.316 µM): > 1000 nM
- IC50 (second compound 1 µM): > 1000 nM
Compound: C=CC(=O)Nc1cc(Nc2nccc(-c3cn(C)c4ccccc34)n2)c(OC)cc1N(C)CCN(C)C + C=CC(=O)N1CCN(c2nc(OCC3CCCN3C)nc3c(F)c(-c4nc(N)cc(C)c4C(F)(F)F)c(Cl)cc23)C(C)C1
- viability, T/C (second compound 0.00316 µM, first compound 0.00316 µM): 105%
- viability, T/C (second compound 0.00316 µM, first compound 0.01 µM): 171%
- viability, T/C (second compound 0.00316 µM, first compound 0.0316 µM): 121%
- viability, T/C (second compound 0.00316 µM, first compound 0.1 µM): 90.5%
- viability, T/C (second compound 0.00316 µM, first compound 0.316 µM): 94.2%
- viability, T/C (second compound 0.00316 µM, first compound 1 µM): 121%
- viability, T/C (second compound 0.01 µM, first compound 0.00316 µM): 137%
- viability, T/C (second compound 0.01 µM, first compound 0.01 µM): 150%
- viability, T/C (second compound 0.01 µM, first compound 0.0316 µM): 106%
- viability, T/C (second compound 0.01 µM, first compound 0.1 µM): 94.1%
- viability, T/C (second compound 0.01 µM, first compound 0.316 µM): 80.9%
- viability, T/C (second compound 0.01 µM, first compound 1 µM): 128%
- viability, T/C (second compound 0.0316 µM, first compound 0.00316 µM): 168%
- viability, T/C (second compound 0.0316 µM, first compound 0.01 µM): 157%
- viability, T/C (second compound 0.0316 µM, first compound 0.0316 µM): 88.9%
- viability, T/C (second compound 0.0316 µM, first compound 0.1 µM): 105%
- viability, T/C (second compound 0.0316 µM, first compound 0.316 µM): 87.6%
- viability, T/C (second compound 0.0316 µM, first compound 1 µM): 114%
- viability, T/C (second compound 0.1 µM, first compound 0.00316 µM): 135%
- viability, T/C (second compound 0.1 µM, first compound 0.01 µM): 162%
- viability, T/C (second compound 0.1 µM, first compound 0.0316 µM): 124%
- viability, T/C (second compound 0.1 µM, first compound 0.1 µM): 87.1%
- viability, T/C (second compound 0.1 µM, first compound 0.316 µM): 82%
- viability, T/C (second compound 0.1 µM, first compound 1 µM): 108%
- viability, T/C (second compound 0.316 µM, first compound 0.00316 µM): 161%
- viability, T/C (second compound 0.316 µM, first compound 0.01 µM): 152%
- viability, T/C (second compound 0.316 µM, first compound 0.0316 µM): 99.8%
- viability, T/C (second compound 0.316 µM, first compound 0.1 µM): 106%
- viability, T/C (second compound 0.316 µM, first compound 0.316 µM): 74.8%
- viability, T/C (second compound 0.316 µM, first compound 1 µM): 141%
- viability, T/C (second compound 1 µM, first compound 0.00316 µM): 145%
- viability, T/C (second compound 1 µM, first compound 0.01 µM): 159%
- viability, T/C (second compound 1 µM, first compound 0.0316 µM): 101%
- viability, T/C (second compound 1 µM, first compound 0.1 µM): 115%
- viability, T/C (second compound 1 µM, first compound 0.316 µM): 87.3%
- viability, T/C (second compound 1 µM, first compound 1 µM): 109%
